Assay in all cases: DSF 100 kinase selectivity screen;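 for dTm: compound tested at 20 µM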
What all share (type): binding

For assay [1], the target named is T1, ~100 representative kinases (Homo sapiens, UniProt Q13554).
T1 construct: Recombinant protein kinase domains with a concentration of 2 μM
The following applies: Protein CAMK2B; average of three replicates. The procedure:
(§1) Recombinant protein kinase domains with a concentration of 2 μM were mixed with a 20 μM compound solution in dimethyl sulfoxide (DMSO), 20 mM Hepes (pH 7.5), and 500 mM NaCl. SYPRO Orange (5000×, Invitrogen) was added as a fluorescence probe (1μl/ml). Subsequently, temperature-dependent protein unfolding profiles were measured using the QuantStudio 5 realtime PCR machine (Thermo Fisher Scientific, Waltham, MA, USA). […] The temperature was raised with a step rate of 3°C/min. […] Differences in melting temperature are given as ΔTm values in degrees Celsius. […]

Assay [2] concerns the target T2, ~100 representative kinases (Homo sapiens, UniProt P24941).
T2 construct: Recombinant protein kinase domains with a concentration of 2 μM
The note with it: Protein CDK2; average of three replicates. The procedure:
as §1

The target in assay [3] is T3, ~100 representative kinases (Homo sapiens, UniProt Q9H4A3).
T3 construct: Recombinant protein kinase domains with a concentration of 2 μM
T3 sequence (Q9H4A3 whole entry, the tested form may be a part): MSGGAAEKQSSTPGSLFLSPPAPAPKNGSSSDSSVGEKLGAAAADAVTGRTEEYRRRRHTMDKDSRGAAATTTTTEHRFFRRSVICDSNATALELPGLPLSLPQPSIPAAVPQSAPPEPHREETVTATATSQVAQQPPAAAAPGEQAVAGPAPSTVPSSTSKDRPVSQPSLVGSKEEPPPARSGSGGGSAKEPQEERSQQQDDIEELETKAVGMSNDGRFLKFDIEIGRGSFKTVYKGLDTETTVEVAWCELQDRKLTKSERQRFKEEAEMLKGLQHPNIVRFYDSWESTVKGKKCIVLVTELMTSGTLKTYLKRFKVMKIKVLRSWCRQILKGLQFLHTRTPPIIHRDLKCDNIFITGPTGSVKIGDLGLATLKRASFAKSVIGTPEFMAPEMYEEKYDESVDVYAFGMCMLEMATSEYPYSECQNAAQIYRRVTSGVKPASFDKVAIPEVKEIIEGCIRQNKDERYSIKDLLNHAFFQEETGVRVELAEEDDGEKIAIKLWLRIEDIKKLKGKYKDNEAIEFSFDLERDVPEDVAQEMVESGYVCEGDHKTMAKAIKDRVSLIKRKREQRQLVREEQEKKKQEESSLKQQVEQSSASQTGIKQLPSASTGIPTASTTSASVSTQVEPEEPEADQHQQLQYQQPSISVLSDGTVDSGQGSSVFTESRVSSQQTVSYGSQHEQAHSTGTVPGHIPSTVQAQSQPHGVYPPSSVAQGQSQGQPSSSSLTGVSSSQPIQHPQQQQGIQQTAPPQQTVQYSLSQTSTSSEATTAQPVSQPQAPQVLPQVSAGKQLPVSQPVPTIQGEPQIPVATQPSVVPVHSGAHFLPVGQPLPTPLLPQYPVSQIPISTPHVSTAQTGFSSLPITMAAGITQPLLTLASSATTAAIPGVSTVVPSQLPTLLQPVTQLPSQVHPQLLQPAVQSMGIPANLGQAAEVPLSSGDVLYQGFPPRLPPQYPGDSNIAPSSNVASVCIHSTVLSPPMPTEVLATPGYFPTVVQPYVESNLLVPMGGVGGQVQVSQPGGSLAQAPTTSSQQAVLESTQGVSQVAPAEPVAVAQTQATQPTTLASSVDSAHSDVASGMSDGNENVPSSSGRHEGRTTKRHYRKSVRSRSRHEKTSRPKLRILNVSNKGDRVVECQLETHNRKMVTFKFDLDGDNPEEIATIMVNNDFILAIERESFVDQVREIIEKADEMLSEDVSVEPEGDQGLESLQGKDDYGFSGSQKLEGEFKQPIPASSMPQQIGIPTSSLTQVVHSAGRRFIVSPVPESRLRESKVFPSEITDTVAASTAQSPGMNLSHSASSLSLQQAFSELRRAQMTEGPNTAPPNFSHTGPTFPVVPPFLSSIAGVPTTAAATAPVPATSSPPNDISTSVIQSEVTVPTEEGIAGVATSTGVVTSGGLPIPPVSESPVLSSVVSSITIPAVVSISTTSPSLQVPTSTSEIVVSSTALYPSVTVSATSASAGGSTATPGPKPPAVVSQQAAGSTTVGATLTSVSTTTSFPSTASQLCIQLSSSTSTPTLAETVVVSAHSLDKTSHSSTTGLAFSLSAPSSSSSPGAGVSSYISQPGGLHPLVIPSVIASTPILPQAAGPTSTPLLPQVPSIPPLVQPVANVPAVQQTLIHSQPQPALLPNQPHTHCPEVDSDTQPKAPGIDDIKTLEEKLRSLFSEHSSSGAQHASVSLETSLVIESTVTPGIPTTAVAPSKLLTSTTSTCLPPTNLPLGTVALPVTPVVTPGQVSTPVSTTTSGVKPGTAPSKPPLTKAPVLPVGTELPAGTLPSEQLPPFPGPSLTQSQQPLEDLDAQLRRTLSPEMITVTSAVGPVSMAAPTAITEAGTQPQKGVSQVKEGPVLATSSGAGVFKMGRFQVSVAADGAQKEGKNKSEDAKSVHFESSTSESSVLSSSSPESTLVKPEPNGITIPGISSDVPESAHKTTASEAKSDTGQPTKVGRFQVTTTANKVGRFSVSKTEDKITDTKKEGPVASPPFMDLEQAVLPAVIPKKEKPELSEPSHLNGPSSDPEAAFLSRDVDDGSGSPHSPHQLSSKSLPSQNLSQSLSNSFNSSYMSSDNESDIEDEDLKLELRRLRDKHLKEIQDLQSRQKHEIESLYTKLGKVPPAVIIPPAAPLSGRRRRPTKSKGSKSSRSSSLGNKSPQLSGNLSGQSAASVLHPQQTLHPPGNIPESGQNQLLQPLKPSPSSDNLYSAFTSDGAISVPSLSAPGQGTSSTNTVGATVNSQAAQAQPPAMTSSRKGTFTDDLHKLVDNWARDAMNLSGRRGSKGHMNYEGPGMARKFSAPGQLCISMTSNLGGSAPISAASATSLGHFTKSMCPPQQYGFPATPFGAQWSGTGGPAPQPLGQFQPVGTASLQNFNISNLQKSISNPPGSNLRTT
The following applies: Protein WNK1; DSF; average of three replicates. Here is the method: as §1

Assay [4] concerns the target T4, ~100 representative kinases (Homo sapiens, UniProt P49674).
T4 construct: Recombinant protein kinase domains with a concentration of 2 μM
The note with it: Protein CSNK1E; average of three replicates. Here is the method:
as §1

For assay [5], the target named is T5, ~100 representative kinases (Homo sapiens, UniProt Q92630).
T5 construct: Recombinant protein kinase domains with a concentration of 2 μM
T5 sequence (Q92630 1-601): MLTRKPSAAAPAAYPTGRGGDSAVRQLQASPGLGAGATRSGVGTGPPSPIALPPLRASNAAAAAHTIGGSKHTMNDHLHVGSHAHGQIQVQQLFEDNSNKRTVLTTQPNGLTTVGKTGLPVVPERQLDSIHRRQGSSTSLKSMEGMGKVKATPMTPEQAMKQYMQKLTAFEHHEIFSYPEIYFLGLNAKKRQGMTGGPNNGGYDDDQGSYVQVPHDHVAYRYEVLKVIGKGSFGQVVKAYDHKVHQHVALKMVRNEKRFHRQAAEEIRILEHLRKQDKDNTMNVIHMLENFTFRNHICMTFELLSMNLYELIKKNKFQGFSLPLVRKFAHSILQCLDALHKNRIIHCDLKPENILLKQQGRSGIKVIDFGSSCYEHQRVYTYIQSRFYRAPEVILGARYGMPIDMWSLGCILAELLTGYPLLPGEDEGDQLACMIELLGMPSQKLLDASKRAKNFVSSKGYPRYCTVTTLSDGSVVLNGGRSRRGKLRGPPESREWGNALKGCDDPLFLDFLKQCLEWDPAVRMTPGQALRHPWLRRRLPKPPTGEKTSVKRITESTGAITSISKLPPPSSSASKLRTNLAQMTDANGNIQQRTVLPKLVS
The following applies: Protein DYRK2; average of three replicates. Here is the method:
as §1

The target in assay [6] is T6, ~100 representative kinases (Homo sapiens, UniProt Q99640).
T6 construct: Recombinant protein kinase domains with a concentration of 2 μM
T6 sequence (Q99640 1-499): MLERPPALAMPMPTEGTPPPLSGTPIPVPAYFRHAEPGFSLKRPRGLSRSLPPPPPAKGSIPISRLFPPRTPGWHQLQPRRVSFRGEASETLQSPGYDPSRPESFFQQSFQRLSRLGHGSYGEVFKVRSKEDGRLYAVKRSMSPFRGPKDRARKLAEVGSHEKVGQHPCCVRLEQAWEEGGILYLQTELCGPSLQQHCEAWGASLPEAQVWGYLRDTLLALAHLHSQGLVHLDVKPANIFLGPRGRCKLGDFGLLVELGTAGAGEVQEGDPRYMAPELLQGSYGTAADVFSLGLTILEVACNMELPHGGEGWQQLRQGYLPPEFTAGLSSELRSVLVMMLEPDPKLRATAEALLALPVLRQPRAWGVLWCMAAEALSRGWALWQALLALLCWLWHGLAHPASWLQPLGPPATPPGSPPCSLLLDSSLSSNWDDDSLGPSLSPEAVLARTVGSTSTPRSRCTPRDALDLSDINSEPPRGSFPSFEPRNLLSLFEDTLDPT
The note with it: protein PKMYT1; average of three replicates. Here is the method:
as §1

Assay [7] has as its system ~100 representative kinases. The note with it: for dTm: Protein BRD, average of three replicates; for # >5K: number of proteins of the DSF panel with dTm >5K. Here is the method: as §1
Assay [8] addresses T7, ~100 representative kinases (Homo sapiens, UniProt P17948).
T7 construct: Recombinant protein kinase domains with a concentration of 2 μM
The following applies: protein FLT1; average of three replicates. Here is the method: as §1

Assay [9] deals with T8, ~100 representative kinases (Homo sapiens, UniProt Q13627).
T8 construct: Recombinant protein kinase domains with a concentration of 2 μM
The following applies: Protein DYRK1A; average of three replicates. Here is the method: as §1

The target of assay [10] is T9, ~100 representative kinases (Homo sapiens, UniProt Q9UPE1).
T9 construct: Recombinant protein kinase domains with a concentration of 2 μM
T9 sequence (Q9UPE1 whole entry, the tested form may be a part): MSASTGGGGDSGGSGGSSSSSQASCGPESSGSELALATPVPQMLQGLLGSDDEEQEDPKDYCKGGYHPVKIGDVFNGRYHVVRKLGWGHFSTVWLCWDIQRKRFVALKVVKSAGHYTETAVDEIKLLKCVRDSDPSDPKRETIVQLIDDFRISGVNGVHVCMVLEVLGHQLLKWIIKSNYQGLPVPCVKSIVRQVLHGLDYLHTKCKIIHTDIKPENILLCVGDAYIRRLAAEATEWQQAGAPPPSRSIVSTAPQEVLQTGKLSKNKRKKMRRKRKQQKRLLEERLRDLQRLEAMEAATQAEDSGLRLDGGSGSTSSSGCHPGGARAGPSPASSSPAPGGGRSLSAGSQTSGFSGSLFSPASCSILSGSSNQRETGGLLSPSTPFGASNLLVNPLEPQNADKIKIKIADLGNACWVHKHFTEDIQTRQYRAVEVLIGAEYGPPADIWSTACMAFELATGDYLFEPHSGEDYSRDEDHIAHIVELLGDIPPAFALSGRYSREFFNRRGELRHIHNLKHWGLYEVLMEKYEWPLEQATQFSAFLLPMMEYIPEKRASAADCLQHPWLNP
The note with it: Protein SRPK3; DSF; average of three replicates. Here is the method: as §1

In assay [11] the target is T10, ~100 representative kinases (Homo sapiens, UniProt P51813).
T10 construct: Recombinant protein kinase domains with a concentration of 2 μM
T10 sequence (P51813 1-675): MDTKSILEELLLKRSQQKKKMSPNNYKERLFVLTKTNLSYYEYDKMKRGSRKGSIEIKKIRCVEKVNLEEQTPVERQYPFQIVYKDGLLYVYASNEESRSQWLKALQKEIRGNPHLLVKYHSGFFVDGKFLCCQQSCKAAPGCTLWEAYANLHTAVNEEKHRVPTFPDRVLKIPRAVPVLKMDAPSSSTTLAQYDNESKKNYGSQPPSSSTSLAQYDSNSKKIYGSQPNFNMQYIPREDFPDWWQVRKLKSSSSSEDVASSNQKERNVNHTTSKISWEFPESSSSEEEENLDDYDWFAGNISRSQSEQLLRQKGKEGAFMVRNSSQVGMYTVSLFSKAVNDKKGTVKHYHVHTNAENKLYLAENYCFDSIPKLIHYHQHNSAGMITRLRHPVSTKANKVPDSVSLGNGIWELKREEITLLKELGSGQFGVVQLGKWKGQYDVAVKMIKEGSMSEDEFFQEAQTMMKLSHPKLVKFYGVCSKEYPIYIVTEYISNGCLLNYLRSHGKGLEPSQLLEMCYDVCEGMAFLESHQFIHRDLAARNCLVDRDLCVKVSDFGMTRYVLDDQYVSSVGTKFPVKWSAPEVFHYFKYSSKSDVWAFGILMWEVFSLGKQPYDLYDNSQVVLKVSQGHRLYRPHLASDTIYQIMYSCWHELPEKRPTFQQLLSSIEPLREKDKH
The note with it: Protein BMX; average of three replicates. Here is the method: as §1

For assay [12], the target named is T11, ~100 representative kinases (Homo sapiens, UniProt Q9NSY1).
T11 construct: Recombinant protein kinase domains with a concentration of 2 μM
T11 sequence (Q9NSY1 whole entry, the tested form may be a part): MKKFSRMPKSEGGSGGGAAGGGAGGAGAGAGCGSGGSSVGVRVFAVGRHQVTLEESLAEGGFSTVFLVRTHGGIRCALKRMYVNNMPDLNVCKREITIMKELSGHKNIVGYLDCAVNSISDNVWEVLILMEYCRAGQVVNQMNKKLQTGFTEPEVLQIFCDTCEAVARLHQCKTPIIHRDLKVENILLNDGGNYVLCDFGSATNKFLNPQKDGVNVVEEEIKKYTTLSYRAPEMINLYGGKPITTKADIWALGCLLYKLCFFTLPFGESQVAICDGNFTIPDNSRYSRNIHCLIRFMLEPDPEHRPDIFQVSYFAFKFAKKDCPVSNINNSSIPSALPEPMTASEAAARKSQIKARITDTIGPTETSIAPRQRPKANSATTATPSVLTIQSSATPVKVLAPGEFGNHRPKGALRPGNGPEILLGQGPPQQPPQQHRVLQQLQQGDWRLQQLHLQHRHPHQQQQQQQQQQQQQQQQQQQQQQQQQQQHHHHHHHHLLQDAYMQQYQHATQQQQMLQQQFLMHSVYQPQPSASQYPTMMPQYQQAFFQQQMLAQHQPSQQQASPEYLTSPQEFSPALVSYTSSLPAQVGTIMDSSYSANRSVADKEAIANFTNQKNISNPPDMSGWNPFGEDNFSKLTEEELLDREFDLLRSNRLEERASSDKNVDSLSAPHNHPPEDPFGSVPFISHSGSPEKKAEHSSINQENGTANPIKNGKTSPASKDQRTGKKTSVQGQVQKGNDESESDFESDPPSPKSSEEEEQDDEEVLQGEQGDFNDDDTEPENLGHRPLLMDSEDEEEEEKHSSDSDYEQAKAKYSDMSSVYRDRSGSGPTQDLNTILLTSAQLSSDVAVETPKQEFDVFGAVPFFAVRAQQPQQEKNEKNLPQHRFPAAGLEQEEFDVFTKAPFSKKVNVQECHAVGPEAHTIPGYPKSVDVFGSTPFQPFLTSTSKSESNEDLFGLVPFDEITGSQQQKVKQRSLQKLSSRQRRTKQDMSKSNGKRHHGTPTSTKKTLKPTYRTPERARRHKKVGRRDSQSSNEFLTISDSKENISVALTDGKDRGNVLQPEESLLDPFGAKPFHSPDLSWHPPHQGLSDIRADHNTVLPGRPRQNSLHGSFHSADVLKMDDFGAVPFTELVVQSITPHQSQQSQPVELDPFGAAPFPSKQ
The following applies: Protein BMP2K; average of three replicates. Here is the method:
as §1

Assay [13] has as its target T12, ~100 representative kinases (Homo sapiens, UniProt Q9Y2H1).
T12 construct: Recombinant protein kinase domains with a concentration of 2 μM
The note with it: Protein STK38L; DSF; average of three replicates. The procedure: as §1

Setting [14] is: number of kinases with thermal shift >5 K divided by total number of kinases screened.
Where [15] appears, read: selectivity score: # >5K divided by # of proteins tested in the DSF panel.

T12 sequence (Q9Y2H1 whole entry, the tested form may be a part): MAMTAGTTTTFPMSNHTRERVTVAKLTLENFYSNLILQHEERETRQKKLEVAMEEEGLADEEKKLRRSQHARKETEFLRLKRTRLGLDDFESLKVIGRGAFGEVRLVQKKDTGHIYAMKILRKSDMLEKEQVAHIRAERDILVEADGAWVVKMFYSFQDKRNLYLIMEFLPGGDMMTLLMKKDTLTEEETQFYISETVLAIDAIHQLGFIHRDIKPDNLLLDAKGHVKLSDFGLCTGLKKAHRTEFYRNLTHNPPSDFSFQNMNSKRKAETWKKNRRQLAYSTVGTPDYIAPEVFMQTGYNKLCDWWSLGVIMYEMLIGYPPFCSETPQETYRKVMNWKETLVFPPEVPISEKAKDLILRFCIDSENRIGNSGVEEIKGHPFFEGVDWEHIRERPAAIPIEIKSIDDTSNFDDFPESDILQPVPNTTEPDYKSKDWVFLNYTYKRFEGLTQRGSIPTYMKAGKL
T4 sequence (P49674 whole entry, the tested form may be a part): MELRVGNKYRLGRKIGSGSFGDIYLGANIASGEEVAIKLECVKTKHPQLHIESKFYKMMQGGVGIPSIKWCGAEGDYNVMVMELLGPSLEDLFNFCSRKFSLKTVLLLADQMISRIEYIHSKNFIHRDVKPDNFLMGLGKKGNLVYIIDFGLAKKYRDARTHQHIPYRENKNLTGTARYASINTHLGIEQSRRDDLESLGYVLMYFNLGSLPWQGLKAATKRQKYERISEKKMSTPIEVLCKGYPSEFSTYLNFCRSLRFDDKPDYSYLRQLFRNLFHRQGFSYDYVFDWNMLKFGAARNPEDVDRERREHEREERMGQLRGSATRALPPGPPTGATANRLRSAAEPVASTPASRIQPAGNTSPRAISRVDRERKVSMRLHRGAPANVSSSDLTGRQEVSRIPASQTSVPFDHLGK

`Cc1cc(NC(=O)C2(C(=O)Nc3cccc(-c4c[nH]c5ncnc(N6CCOCC6)c45)c3)CC2)ccc1F` [Compound 20]: the dTm in assay [1] amounted to 1.78 K; in assay [2] it was 8.50 K; in assay [3], 0.02 K; in assay [4], 6.52 K; in assay [5], 10.73 K; in [6], 0.44 K. The dTm was -0.20 K in [7]; -2.83 K in [8]; 7.39 K in [9]; 10.86 K in [10]; 1.40 K in assay [11]; 8.74 K in assay [12]. For the same molecule, the dTm in [13] amounted to 0.36 K. Further, the “S(5K)” value in assay [7] (setting [14]) was found to be 0.42; in [7] (setting [15]) it was 0.420. Also, in [7], the “# >5K” value is 42.

`O=C(Nc1cccc(-c2c[nH]c3ncnc(N4CCOCC4)c23)c1)C1(C(=O)Nc2ccc(F)cc2F)CC1` [Compound 23]: the dTm in [1] is 0.18 K; in [2] it was 3.56 K; in assay [3], -0.34 K; in assay [4] it was 3.09 K; in assay [5], 3.88 K; in assay [6] it was -0.59 K. Besides, the dTm in assay [7] is given as -1.02 K; in assay [8], 3.92 K; in assay [9] it was 1.28 K; in [10], 4.09 K; in [11], 0.22 K; in assay [12], 7.18 K. Further, the dTm in assay [13] was 0.0847 K. Also, in assay [7] (DSF selectivity panel, thermal shift >5 K), the “S (5 K) / share of screened kinases stabilized” value is reported as 16%. Besides, the entries for the “S(5K)” value in assay [7] (setting [14]) and in assay [7] (setting [15]) were 0.16 and 0.160, respectively. The “# >5K” value in assay [7] came out at 16.

With `Cc1ccc(-n2nc(C(C)(C)C)cc2NC(=O)Nc2cccc(-c3c[nH]c4ncnc(N5CCOCC5)c34)c2)cc1` [Compound 29], the dTm in [1] was -0.15 K; in assay [2] it was 12.74 K; in assay [3], 1.43 K; in [4], 0.48 K; in [5], 9.71 K; in [6], -0.41 K. Besides, the dTm in [7] is listed as -2.22 K; in assay [8], 12.63 K; in [9], 2.14 K; in assay [10], 6.09 K; in assay [11], 2.21 K; in assay [12], 7.54 K. Besides, the dTm in assay [13] was -0.41 K. The “S(5K)” value in [7] (setting [14]) amounted to 0.36; in assay [7] (setting [15]), 0.356. Moreover, the “# >5K” value in assay [7] is reported as 36.

As to `Cc1ccc(NC(=O)C2(C(=O)Nc3cccc(-c4c[nH]c5ncnc(N6CCOCC6)c45)c3)CC2)cc1` [Compound 14], the dTm was 0.96 K in assay [1]; 7.03 K in assay [2]; 0.16 K in [3]; 3.41 K in assay [4]; 6.23 K in assay [5]; 0.43 K in [6]. Moreover, the dTm in assay [7] is -1.11 K; in assay [8], 4.17 K; in assay [9] it was 3.30 K; in assay [10] it was 5.15 K; in [11] it was 0.15 K; in assay [12], 5.95 K. Further, the dTm in assay [13] was found to be 0.07 K. For the same molecule, the “S(5K)” value in assay [7] (setting [14]) came out at 0.22; in assay [7] (setting [15]), 0.220. In assay [7], the “# >5K” value came to 22.

These data come from article PMC12136037, “Type II kinase inhibitors that target Parkinson’s disease–associated LRRK2” (Science Advances, 2025).
